For assay [1], the target named is Metallo-beta-lactamase type 2 (Bacteria) (UniProt C7C422). Briefly: Inhibition of bacterial NDM-1 assessed as substrate hydrolysis at 50 uM using imipenem as substrate by spectrophotometric analysis relative to control.
In assay [2] the test system is Bacteria. The experiment in a line: Inhibition of bacterial VIM-2 assessed as substrate hydrolysis at 50 uM using imipenem as substrate by spectrophotometric analysis relative to control.
Assay [3] has as its system Bacteria. Briefly: Inhibition of bacterial IMP-1 assessed as substrate hydrolysis at 50 uM using imipenem as substrate by spectrophotometric analysis relative to control.
Assay [4] addresses T1, Metallo-beta-lactamase type 2 (Bacteria, UniProt C7C422). Briefly: Competitive inhibition of NDM-1 using imipenem as substrate by spectrophotometric analysis.
Assay [5] relates to Klebsiella pneumoniae. Briefly: Potentiation of meropenem induced antibacterial activity against blaNDM-1 producing Klebsiella pneumoniae SI-518 assessed as reduction in meropenem MIC at 32 ug/ml (reference value: 128 ug/ml). It counts as functional. The settings on record: dose 32 µg/ml.
Assay [6] relates to Escherichia coli. Briefly: Potentiation of meropenem induced antibacterial activity against blaNDM-1 producing Escherichia coli SI-004M assessed as reduction in meropenem MIC at 32 ug/ml (reference value: 64 ug/ml). Type of assay: functional. The settings on record: dose 32 µg/ml.
The test system of assay [7] is Escherichia coli. Briefly: Potentiation of meropenem induced antibacterial activity against blaNDM-4 producing Escherichia coli SI-G001 assessed as reduction in meropenem MIC at 32 ug/ml (reference value: 128 ug/ml). Type of assay: functional. The note with it: dose 32 µg/ml.
Assay [8] deals with T1, Metallo-beta-lactamase type 2. The experiment in a line: Inhibition of bacterial NDM-1.
Assay [9] concerns the target Metallo-beta-lactamase type 2 (Bacteria) (UniProt C7C422). The experiment in a line: Inhibition of bacterial NDM-1 assessed as substrate hydrolysis at 100 uM using imipenem as substrate by spectrophotometric analysis relative to control.
Assay [10] deals with Bacteria. Briefly: Inhibition of bacterial VIM-2 assessed as substrate hydrolysis at 100 uM using imipenem as substrate by spectrophotometric analysis relative to control.
Assay [11] concerns Bacteria. The experiment in a line: Inhibition of bacterial IMP-1 assessed as substrate hydrolysis at 100 uM using imipenem as substrate by spectrophotometric analysis relative to control.

As a reminder, the inhibition is the change of the read-out against control, counted positive when it falls. Usually Ki stands for a dissociation constant, usually derived from enzyme kinetics or from competition with a known ligand. A low value points to a stronger hold on the target. The MIC is the smallest concentration in the dilution series that meets the test's criterion for growth inhibition.

Chain of Metallo-beta-lactamase type 2 (Bacteria) (C7C422 whole entry): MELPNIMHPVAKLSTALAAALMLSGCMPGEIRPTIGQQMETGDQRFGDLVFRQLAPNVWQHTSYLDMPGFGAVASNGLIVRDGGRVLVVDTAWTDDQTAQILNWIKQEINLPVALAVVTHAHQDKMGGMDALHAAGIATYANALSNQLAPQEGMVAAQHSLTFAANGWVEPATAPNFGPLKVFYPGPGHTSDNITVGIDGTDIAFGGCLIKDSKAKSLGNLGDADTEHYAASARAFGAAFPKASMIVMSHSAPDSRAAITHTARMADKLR
T1 sequence (C7C422 whole entry): as above

Consider `COc1ccc(/C=C2\Oc3c(ccc(O)c3O)C2=O)c(O)c1`, for which the results for the inhibition in assay [1], in assay [2] and in assay [3] were 84.5%, under 10% and 49%, respectively. In [4], this molecule came in with a Ki of 1.7 µM. In addition, the MIC stood at 32 µg/mL in [5], 32 µg/mL in assay [6] and 128 µg/mL in [7].

Turning to `O=C1/C(=C/c2cn(CC3CCCCC3)c3ccccc23)Oc2cc(O)cc(O)c21`, the results for the inhibition in assay [1], in [2] and in assay [3] were 72%, under 10% and 44%, respectively. In assay [4], the Ki was determined as 2.5 µM. Further, the MIC in assay [5] was 16 µg/mL; in assay [6] it was 64 µg/mL; in assay [7], 64 µg/mL.

For the molecule `O=C(O)CN1CCN(CC(=O)O)CCN(CC(=O)O)CC1`, the Ki in [8] was 5.1 µM.

In the case of `O=C1/C(=C/c2ccc(O)c(O)c2)Cc2cc(O)cc(O)c21`, the Ki in [8] was determined as 4.1 µM.

As for `O=C1/C(=C/c2ccc(N3CCCCC3)cc2)Oc2cc(O)cc(O)c21`, the inhibition in [1] is 74%; in [2], 17%; in assay [3], 20%. This molecule displayed a Ki in assay [4] of 4.8 µM. For the same molecule, the MIC in [5] was 64 µg/mL; in assay [6], 64 µg/mL; in [7], 128 µg/mL.

As to `O=C1/C(=C/c2cn(CCCc3ccccc3)c3ccccc23)Oc2cc(O)cc(O)c21`, the figures for the inhibition in assay [1], in assay [2] and in [3] were 68.7%, under 10% and 41%, respectively. Besides, in [4], the inhibition constant Ki was 17 µM. In addition, the results for the MIC in assay [5], in [6] and in assay [7] were 32 µg/mL, 32 µg/mL and 64 µg/mL, respectively.

For `O=C(O)[C@H](CCCn1c(-c2ccccc2)n[nH]c1=S)N(Cc1c[nH]cn1)Cc1c[nH]cn1`, the MIC in assay [5], in assay [6] and in assay [7] was at most 0.5 µg/mL in each case. The inhibition in [9] is 97%; in assay [10] it was 96%; in assay [11] it was 40%.

With `O=C1/C(=C/c2cn(Cc3cccc(O)c3)c3ccccc23)Oc2cc(O)cc(O)c21`, the figures for the inhibition in assay [1], in [2] and in assay [3] were 78%, under 10% and 31%, respectively. The molecule further had a Ki in assay [4] of 16 µM. The MIC in assay [5] worked out at 64 µg/mL; in assay [6], 64 µg/mL; in assay [7], 128 µg/mL.

Turning to `O=C1/C(=C/c2cn(Cc3cccc(Br)c3)c3ccccc23)Oc2cc(O)cc(O)c21`, the inhibition in assay [1] was 69%; in assay [2] it was under 10%; in assay [3], 43%. The same molecule gave a Ki in assay [4] of 5.5 µM. Moreover, the MIC in [5] turned out to be 32 µg/mL; in [6], 32 µg/mL; in [7], 64 µg/mL.

Take `N[C@@H](CN[C@@H](CN[C@@H](CC(O)O)C(=O)O)C(=O)O)C(=O)O`: the Ki in [8] came to 0.011 µM.

Take `O=C1/C(=C/c2cn(Cc3ccccc3Br)c3ccccc23)Oc2cc(O)cc(O)c21`: the inhibition in [1] is under 10%; in [2], under 10%; in assay [3] it was 23%.

The values are drawn from ChEMBL document CHEMBL5356995, “Aurones and derivatives as promising New Delhi metallo-β-lactamase (NDM-1) inhibitors” (Bioorg Med Chem, 2024).
